Assay results as given in ChEMBL document CHEMBL1201862, “PubChem BioAssay data set” (2004).
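Results reflect a 48-hour exposure of cells in 96-well plates to compound at five concentrations. The concentration for 50% growth inhibition is given as GI50.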 Calls of active or inactive are those of the source. Cut-off read from the data, not from the text of the source: active = GI50 up to about 1.1 µM and inactive = higher.

Columns and labels:
Experiment in all cases: growth of human tumour cells (NCI), 48 h
SNB-75 = tested on: SNB-75
UO-31 = tested on: UO-31
KM12 = tested on: KM12
NCI-H23 = tested on: NCI-H23
786-0 = tested on: 786-0
IGROV-1 = tested on: IGROV-1
HCC 2998 = tested on: HCC 2998
HOP-92 = tested on: HOP-92
SR = tested on: SR
SN12C = tested on: SN12C
TK-10 = tested on: TK-10
RXF 393 = tested on: RXF 393
DMS-114 = tested on: DMS-114
NCI-H522 = tested on: NCI-H522
MOLT-4 = tested on: MOLT-4
SK-MEL-28 = tested on: SK-MEL-28
M19-MEL = tested on: M19-MEL
OVCAR-4 = tested on: OVCAR-4
OVCAR-3 = tested on: OVCAR-3
HT-29 = tested on: HT-29
NCI-H226 = tested on: NCI-H226
DMS-273 = tested on: DMS-273
CAKI-1 = tested on: CAKI-1
K562 = tested on: K562
LXFL 529 = tested on: LXFL 529
UACC-257 = tested on: UACC-257
SK-MEL-2 = tested on: SK-MEL-2
UACC-62 = tested on: UACC-62
ACHN = tested on: ACHN
SNB-19 = tested on: SNB-19
SW-620 = tested on: SW-620
SF-539 = tested on: SF-539
A549 = tested on: A549
OVCAR-5 = tested on: OVCAR-5
COLO 205 = tested on: COLO 205
OVCAR-8 = tested on: OVCAR-8
U-251 = tested on: U-251
Malme-3M = tested on: Malme-3M
SK-OV-3 = tested on: SK-OV-3
RPMI-8226 = tested on: RPMI-8226
SF-295 = tested on: SF-295
EKVX = tested on: EKVX
SNB-78 = tested on: SNB-78
HCT-15 = tested on: HCT-15
SK-MEL-5 = tested on: SK-MEL-5
SF-268 = tested on: SF-268
KM-20L2 = tested on: KM-20L2
HCT-116 = tested on: HCT-116
HOP-62 = tested on: HOP-62
CCRF-CEM = tested on: CCRF-CEM
DLD-1 = tested on: DLD-1
NCI-H460 = tested on: NCI-H460
LOX IMVI = tested on: LOX IMVI
HOP-18 = tested on: HOP-18
M14 = tested on: M14
HL-60 = tested on: HL-60
A498 = tested on: A498

COc1ccc(/C=C/COC(C)=O)cc1OC
GI50 (SNB-75): > 100 µM (inactive)
GI50 (UO-31): > 100 µM (inactive)
GI50 (KM12): > 100 µM (inactive)
GI50 (NCI-H23): > 100 µM (inactive)
GI50 (786-0): > 100 µM (inactive)
GI50 (IGROV-1): > 100 µM (inactive)
GI50 (HCC 2998): > 100 µM (inactive)
GI50 (HOP-92): 86.5 µM (inactive)
GI50 (SR): > 100 µM (inactive)
GI50 (SN12C): > 100 µM (inactive)
GI50 (TK-10): > 100 µM (inactive)
GI50 (RXF 393): > 100 µM (inactive)
GI50 (DMS-114): > 100 µM (inactive)
GI50 (NCI-H522): > 100 µM (inactive)
GI50 (MOLT-4): > 100 µM (inactive)
GI50 (SK-MEL-28): > 100 µM (inactive)
GI50 (M19-MEL): > 100 µM (inactive)
GI50 (OVCAR-4): > 100 µM (inactive)
GI50 (OVCAR-3): > 100 µM (inactive)
GI50 (HT-29): > 100 µM (inactive)
GI50 (NCI-H226): > 100 µM (inactive)
GI50 (DMS-273): > 100 µM (inactive)
GI50 (CAKI-1): > 100 µM (inactive)
GI50 (K562): > 100 µM (inactive)
GI50 (LXFL 529): > 100 µM (inactive)
GI50 (UACC-257): > 100 µM (inactive)
GI50 (SK-MEL-2): > 100 µM (inactive)
GI50 (UACC-62): > 100 µM (inactive)
GI50 (ACHN): > 100 µM (inactive)
GI50 (SNB-19): > 100 µM (inactive)
GI50 (SW-620): > 100 µM (inactive)
GI50 (SF-539): > 100 µM (inactive)
GI50 (A549): > 100 µM (inactive)
GI50 (OVCAR-5): > 100 µM (inactive)
GI50 (COLO 205): > 100 µM (inactive)
GI50 (OVCAR-8): > 100 µM (inactive)
GI50 (U-251): > 100 µM (inactive)
GI50 (Malme-3M): > 100 µM (inactive)
GI50 (SK-OV-3): > 100 µM (inactive)
GI50 (RPMI-8226): > 100 µM (inactive)
GI50 (SF-295): > 100 µM (inactive)
GI50 (EKVX): > 100 µM (inactive)
GI50 (SNB-78): > 100 µM (inactive)
GI50 (HCT-15): > 100 µM
GI50 (SK-MEL-5): > 100 µM (inactive)
GI50 (SF-268): > 100 µM (inactive)
GI50 (KM-20L2): > 100 µM (inactive)

N#CC(NNC(=O)c1ccccc1O)c1ccccc1O (configuration not stated)
GI50 (HCT-116): 4.29 µM (inactive)
GI50 (SNB-75): 18.5 µM (inactive)
GI50 (UO-31): 2.91 µM (inactive)
GI50 (HOP-62): 8.45 µM (inactive)
GI50 (CCRF-CEM): 2.06 µM (inactive)
GI50 (KM12): 5.82 µM (inactive)
GI50 (NCI-H23): 2.06 µM (inactive)
GI50 (786-0): 3.55 µM (inactive)
GI50 (IGROV-1): 2.6 µM (inactive)
GI50 (DLD-1): 3.26 µM (inactive)
GI50 (HOP-92): 13.6 µM (inactive)
GI50 (SR): 0.472 µM (active)
GI50 (SN12C): 5.27 µM (inactive)
GI50 (TK-10): 68.9 µM (inactive)
GI50 (NCI-H460): 4.85 µM (inactive)
GI50 (RXF 393): 12.8 µM (inactive)
GI50 (NCI-H522): 8.87 µM (inactive)
GI50 (MOLT-4): 2.23 µM (inactive)
GI50 (SK-MEL-28): 10.9 µM (inactive)
GI50 (M19-MEL): 4.45 µM (inactive)
GI50 (OVCAR-4): 9.64 µM (inactive)
GI50 (OVCAR-3): 2.52 µM (inactive)
GI50 (HT-29): 41.4 µM (inactive)
GI50 (NCI-H226): 3.18 µM (inactive)
GI50 (DMS-273): 2.38 µM (inactive)
GI50 (CAKI-1): 3.27 µM (inactive)
GI50 (K562): 5.43 µM (inactive)
GI50 (LXFL 529): 18.6 µM (inactive)
GI50 (LOX IMVI): 3.78 µM (inactive)
GI50 (UACC-257): 4.06 µM (inactive)
GI50 (HOP-18): 4.65 µM (inactive)
GI50 (SK-MEL-2): 31.3 µM (inactive)
GI50 (UACC-62): 2.72 µM (inactive)
GI50 (ACHN): 2.44 µM (inactive)
GI50 (SW-620): 7.66 µM (inactive)
GI50 (SF-539): 4.06 µM (inactive)
GI50 (A549): 8.69 µM (inactive)
GI50 (OVCAR-5): 27.1 µM (inactive)
GI50 (COLO 205): 33.5 µM (inactive)
GI50 (OVCAR-8): 3.58 µM (inactive)
GI50 (M14): 5.65 µM (inactive)
GI50 (U-251): 4.18 µM (inactive)
GI50 (Malme-3M): 10 µM (inactive)
GI50 (SK-OV-3): 9.53 µM (inactive)
GI50 (RPMI-8226): 4.03 µM (inactive)
GI50 (SF-295): 9.23 µM (inactive)
GI50 (SNB-78): 38.3 µM (inactive)
GI50 (HCT-15): 3.85 µM
GI50 (SK-MEL-5): 8.89 µM (inactive)
GI50 (SF-268): 2.29 µM (inactive)
GI50 (KM-20L2): 32.8 µM (inactive)
GI50 (HL-60): 1.27 µM (inactive)

O=Cc1cn(C(=O)c2ccccc2)c2ccccc12
GI50 (HCT-116): 43.2 µM (inactive)
GI50 (SNB-75): 43.6 µM (inactive)
GI50 (UO-31): 36.6 µM (inactive)
GI50 (HOP-62): > 100 µM (inactive)
GI50 (CCRF-CEM): 43.2 µM (inactive)
GI50 (KM12): 64 µM (inactive)
GI50 (NCI-H23): 80.4 µM (inactive)
GI50 (786-0): > 100 µM (inactive)
GI50 (IGROV-1): > 100 µM (inactive)
GI50 (DLD-1): > 100 µM (inactive)
GI50 (HCC 2998): > 100 µM (inactive)
GI50 (TK-10): > 100 µM (inactive)
GI50 (NCI-H460): > 100 µM (inactive)
GI50 (RXF 393): 53.5 µM (inactive)
GI50 (DMS-114): 60.1 µM (inactive)
GI50 (MOLT-4): 54.2 µM (inactive)
GI50 (SK-MEL-28): > 100 µM (inactive)
GI50 (M19-MEL): > 100 µM (inactive)
GI50 (OVCAR-4): > 100 µM (inactive)
GI50 (OVCAR-3): > 100 µM (inactive)
GI50 (HT-29): 71.3 µM (inactive)
GI50 (NCI-H226): 56 µM (inactive)
GI50 (A498): > 100 µM (inactive)
GI50 (DMS-273): > 100 µM (inactive)
GI50 (CAKI-1): 82.8 µM (inactive)
GI50 (K562): 70 µM (inactive)
GI50 (LXFL 529): 51.3 µM (inactive)
GI50 (UACC-257): 83 µM (inactive)
GI50 (SK-MEL-2): > 100 µM (inactive)
GI50 (UACC-62): > 100 µM (inactive)
GI50 (ACHN): > 100 µM (inactive)
GI50 (SW-620): > 100 µM (inactive)
GI50 (SF-539): 80 µM (inactive)
GI50 (A549): > 100 µM (inactive)
GI50 (OVCAR-5): > 100 µM (inactive)
GI50 (OVCAR-8): > 100 µM (inactive)
GI50 (M14): > 100 µM (inactive)
GI50 (U-251): > 100 µM (inactive)
GI50 (Malme-3M): > 100 µM (inactive)
GI50 (SK-OV-3): > 100 µM (inactive)
GI50 (RPMI-8226): 37.2 µM (inactive)
GI50 (SF-295): 38.1 µM (inactive)
GI50 (EKVX): > 100 µM (inactive)
GI50 (SNB-78): 36.9 µM (inactive)
GI50 (HCT-15): > 100 µM
GI50 (SK-MEL-5): 45 µM (inactive)
GI50 (KM-20L2): > 100 µM (inactive)
GI50 (HL-60): 28.7 µM (inactive)
